Measurements published in US20130324520A1, “RXRG MODULATORS FOR THE TREATMENT OF CANCER” (SLOAN-KETTERING INSTITUTE FOR CANCER RESEARCH, priority 2011, published 2013).
“Also recorded” adds a separate entry of the source.

Columns and labels:
[1] = test system: RB1 mutated retinoblastoma; test: RXRG ligands on retinoblastoma cell growth; type: cell-based
Description: (§1) Colon, lung, pancreatic cancer, retinoblastoma and other cell lines were cultured in culture medium consisting of IMDM (Medium Lab, MSKCC, NY) with 10% FBS (SH3008803, HyClone, Thermo Scientific), 2 mM glutamine (Invitrogen), 55 μM beta-mercaptoethanol (Invitrogen), 1% Penicillin/streptomycin (Invitrogen), and 2.5 μg/ml Plasmocin (Invivogen), at 37° C. in a humidified incubator with 5% CO2. Melanoma cell lines were culture in RPMI with above additives.
(§2) Colon, lung, pancreatic, breast, prostate cancer cell lines and other cancer cell lines were cultured in 10 cm dishes or 24 well plates with complete IMDM or RPMI (for melanoma) with 30-50% confluence. […] DMSO was used for control. After 3-6 days treatment, cells were collected and counted with trypan blue. Dose-effectiveness curves were generated with series dilution of compounds in medium for treatment of cells.

[2] = test system: RB177; test: RXRG ligands on retinoblastoma cell growth; type: cell-based
Description: as §1, §2

[3] = test system: H1650; test: Drug treatment on cancer cell lines, cell counting; type: cell-based; details: EGFR mutated lung cancer
Text: (§3) DMSO was used for control.

[4] = test system: H1975; test: Drug treatment on cancer cell lines, cell counting; type: cell-based; details: EGFR mutated lung cancer
Text: as §3

[5] = test system: H3255; test: Drug treatment on cancer cell lines, cell counting; type: cell-based; details: EGFR mutated lung cancer
Text: as §3

[6] = test system: H820; test: Drug treatment on cancer cell lines, cell counting; type: cell-based; details: EGFR mutated lung cancer
Text: as §3

[7] = test system: PC930201; test: Drug treatment on cancer cell lines, cell counting; type: cell-based; details: KRAS mutated pancreatic cancer (PC0201)
Text: as §3

[8] = test system: PC931019; test: Drug treatment on cancer cell lines, cell counting; type: cell-based; details: for cell growth: KRAS mutated pancreatic cancer (PC1019); for growth inhibition, single agent / effect of combination with HX531 on growth: day 9; for growth inhibition, single agent: 6 uM HX531, 10 uM PD98059, 100 nM PD0325901; for effect of combination with HX531 on growth: MEK inhibitor plus 6 uM HX531
Text: as §3

[9] = test system: PC941102; test: Drug treatment on cancer cell lines, cell counting; type: cell-based; details: KRAS mutated pancreatic cancer (PC1102)
Text: as §3

[10] = test system: EGFR and KRAS activated NSCLC, pancreatic, and colon cancers; test: Drug treatment on cancer cell lines, cell counting (group of lines); type: cell-based; details: for cell growth / proliferation: KRAS or EGFR mutant colon, NSCLC, pancreatic, hepatoma cells, concentration not given
Text: as §3

[11] = test system: PTEN mutated prostate cancer, small cell lung cancer, and breast cancer; test: as above; type: cell-based; details: PTEN mutant lines as a group
Text: as §3

[12] = test system: A549; test: Drug treatment on cancer cell lines, cell counting; type: cell-based; details: for effect of combination with HX531 on growth: MEK inhibitor plus HX531; for growth inhibition, single agent: day 3, 6 uM HX531, 10 uM PD98059, 100 nM PD0325901
Text: as §3

[13] = test system: HCT116; test: Drug treatment on cancer cell lines, cell counting; type: cell-based; details: day 3; for growth inhibition, single agent: 6 uM HX531, 10 uM PD98059, 100 nM PD0325901; for effect of combination with HX531 on growth: MEK inhibitor plus 6 uM HX531
Text: as §3

[14] = patients; cited from earlier work
[15] = test system: H1755; test: Drug treatment on cancer cell lines, cell counting; type: cell-based; details: UVI3003 10 uM (FIG. 23)
Text: as §3

[16] = test system: MDA-MB-468; test: Drug treatment on cancer cell lines, cell counting; type: cell-based; details: UVI3003 10 uM (FIG. 23)
Text: as §3

[17] = test system: Saos2; test: Drug treatment on cancer cell lines, cell counting; type: cell-based; details: UVI3003 10 uM (FIG. 23)
Text: as §3

[18] = test system: normal fibroblasts WI38; test: Drug treatment on cell lines, cell counting; type: cell-based; details: UVI3003 10 uM (FIG. 23)
Text: as §3

[19] = test system: SCLC; test: Drug treatment on cancer cell lines, cell counting (group of lines); type: cell-based; details: UVI3003 10 uM (FIG. 23); some PTEN mutated SCLC
Text: as §3

[20] = test system: H1975; test: Cell cycle analysis; type: cell-based; details: EGFR mutant NSCLC, day 3
[21] = test system: PC931019; test: Cell cycle analysis; type: cell-based; details: KRAS mutant pancreatic cancer, day 3
Description: After drug treatment, cells were collected for cell cycle analysis, RNA isolation, quantitative PCR, western blot, and immunofluorescence. For cell cycle analysis, retinoblastoma, neuroblastoma, lung, pancreatic, and colon cancer cells were collected and dissociated on days 3, 5, 7, 9, 11, and 16 after treatment. Cells were fixed by 70% cold ethanol alcohol while vortex, and put in −20° C. for storage. […] At 24 hours after treatment, 4 ug/ml Aphidicolin was added to cells with compounds for 24 hr. Aphidicolin was removed by centrifugation and PBS wash, and then added to new wells with fresh medium and compounds. Cells were collected and fixed before addition of aphidicolin, immediately after removal of aphidicolin, and every two hours thereafter until 16-18 hours.
The tubes with cells were taken out of the freezer and alcohol was removed by centrifugation. 150 ul of 0.06 mg/ml propidium iodide with 0.1% NF40 was added to the cells, and then 100 ul of 2 mg/ml of RNase was added to the cells. These were mixed well and incubated at 37° C. for 30 min. The cell ploidy according to DNA contents were measured in FACSCalibur with FL3-Width and FL3-Height as the parameter. Flowjo was used for analysis of the cell cycle changes.

Row | Compound | cell growth [3] | cell growth [4] | cell growth [5] | cell growth [6] | cell growth [7] | cell growth [8] | cell growth [9] | cell growth / proliferation [10] | cell growth [11] | effect of combination with HX531 on growth [12] | growth inhibition, single agent [12] | growth inhibition, single agent [13] | effect of combination with HX531 on growth [13] | growth inhibition, single agent [8] | effect of combination with HX531 on growth [8] | further results
1 | CC1=C(/C=C/C(C)=C\C=C\C(C)=C\C(=O)O)C(C)(C)CCC1 [9 cis RA, 9-cis-Retinoic acid] |  |  |  |  |  |  |  |  |  |  |  |  |  |  |  | retinoblastoma cell growth ([1]; in vitro): suppressed retinoblastoma cell growth; cell growth [2]: suppressed cell growth
2 | CCCCCCOc1cc2c(cc1N(C)c1ncc(C(=O)O)cn1)C(C)(C)CCC2(C)C [PA452] | sensitive | sensitive | sensitive | sensitive | sensitive | sensitive | sensitive | efficiently suppress | suppress the growth |  |  |  |  |  |  | 
3 | COc1cccc(-c2cc(=O)c3ccccc3o2)c1N [PD98059] |  |  |  |  |  |  |  |  |  | synergistic effects | moderate growth inhibition | moderate growth inhibition | Synergistic effects | growth inhibition | same synergistic effects | 
4 | O=C(NOC[C@H](O)CO)c1ccc(F)c(F)c1Nc1ccc(I)cc1F [PD0325901] |  |  |  |  |  |  |  |  |  | synergistic effects | moderate growth inhibition | moderate growth inhibition | Synergistic effects | growth inhibition | same synergistic effects | outcome of clinical trial (toxicity) [14]: terminated because of high toxicity in patients
5 | CCCCCOc1cc2c(cc1-c1cc(/C=C/C(=O)O)ccc1O)C(C)(C)CCC2(C)C [UVI3003] | sensitive | sensitive | sensitive | sensitive | sensitive | sensitive | sensitive | efficiently suppress | suppress the growth |  |  |  |  |  |  | relative cell number after treatment [15]: sensitive; relative cell number after treatment [16]: sensitive; relative cell number after treatment [17]: not sensitive; relative cell number after treatment [18]: not sensitive; relative cell number after treatment ([1]; UVI3003 10 uM (FIG. 23)): not sensitive; relative cell number after treatment ([10]; UVI3003 10 uM (FIG. 23), incl. gastric cancer): sensitive; relative cell number after treatment [19]: sensitive; cell cycle, G1-S transition [20]: inhibited G1-S transition; cell cycle, G1-S transition [21]: similarly sensitive; also recorded: inhibited G1-S transition
